Experiments:
B-Raf = B-Raf (Homo sapiens, UniProt P15056); assay: Kinase activity assay, B-Raf; type: biochemical; details: read-out: activity toward kinase B-Raf, IC50
B-Raf V600E = B-Raf V600E (Homo sapiens, UniProt P15056, V600E); assay: Kinase activity assay, B-Raf V600E; type: biochemical; details: read-out: activity toward kinase B-Raf V600E, IC50
TEC = molecular target: T1, TEC (Homo sapiens, UniProt P42680); assay: Kinase activity assay, TEC
T1 sequence (P42680 1-631): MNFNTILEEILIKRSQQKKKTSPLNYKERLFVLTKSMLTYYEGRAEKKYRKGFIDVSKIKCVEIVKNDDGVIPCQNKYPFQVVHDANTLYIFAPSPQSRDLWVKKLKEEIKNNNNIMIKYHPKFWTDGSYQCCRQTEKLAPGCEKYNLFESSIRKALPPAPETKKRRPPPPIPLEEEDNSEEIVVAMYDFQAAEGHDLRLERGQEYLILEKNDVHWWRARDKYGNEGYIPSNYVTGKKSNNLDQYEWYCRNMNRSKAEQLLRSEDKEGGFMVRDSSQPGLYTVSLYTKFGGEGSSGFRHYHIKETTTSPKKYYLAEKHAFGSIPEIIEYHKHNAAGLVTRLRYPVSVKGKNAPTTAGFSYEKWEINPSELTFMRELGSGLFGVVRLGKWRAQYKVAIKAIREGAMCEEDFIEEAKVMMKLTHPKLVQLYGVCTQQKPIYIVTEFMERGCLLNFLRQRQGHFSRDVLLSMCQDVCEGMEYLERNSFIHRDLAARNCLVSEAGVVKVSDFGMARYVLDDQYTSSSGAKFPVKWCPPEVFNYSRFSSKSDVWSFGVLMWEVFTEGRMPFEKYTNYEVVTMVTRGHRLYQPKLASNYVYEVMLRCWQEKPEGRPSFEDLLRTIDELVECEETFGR

Kdr = Kdr (Homo sapiens, UniProt P35968); assay: Kinase activity assay, Kdr
Src = Src (Homo sapiens, UniProt P12931); assay: Kinase activity assay, Src
Btk = Btk (Homo sapiens, UniProt Q06187); assay: Kinase activity assay, Btk
A-Raf = molecular target: T2, A-Raf (Homo sapiens, UniProt P10398); assay: Kinase activity assay, A-Raf
T2 sequence (P10398 1-606): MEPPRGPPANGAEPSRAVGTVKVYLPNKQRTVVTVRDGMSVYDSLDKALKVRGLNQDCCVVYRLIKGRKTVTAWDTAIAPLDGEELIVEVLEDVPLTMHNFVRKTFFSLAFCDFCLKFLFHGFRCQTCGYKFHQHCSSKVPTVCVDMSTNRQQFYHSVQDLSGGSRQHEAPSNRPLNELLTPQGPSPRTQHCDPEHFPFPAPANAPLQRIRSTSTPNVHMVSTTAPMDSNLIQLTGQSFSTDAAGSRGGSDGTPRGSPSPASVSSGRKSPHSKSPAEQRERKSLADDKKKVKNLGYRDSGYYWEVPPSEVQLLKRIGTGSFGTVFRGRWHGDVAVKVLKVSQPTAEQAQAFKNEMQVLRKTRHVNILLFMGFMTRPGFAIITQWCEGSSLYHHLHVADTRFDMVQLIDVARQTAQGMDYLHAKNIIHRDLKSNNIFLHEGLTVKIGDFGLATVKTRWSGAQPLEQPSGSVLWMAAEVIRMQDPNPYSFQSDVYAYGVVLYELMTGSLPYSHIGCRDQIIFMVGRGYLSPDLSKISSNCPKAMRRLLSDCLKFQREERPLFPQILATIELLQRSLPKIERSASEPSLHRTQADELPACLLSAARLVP

Fms = Fms (Homo sapiens, UniProt P07333); assay: Kinase activity assay, Fms
Kit = Kit (Homo sapiens, UniProt P10721); assay: Kinase activity assay, Kit
MAP4K4 = MAP4K4 (Homo sapiens, UniProt O95819); assay: Kinase activity assay, MAP4K4
C-Raf = C-Raf (Homo sapiens, UniProt P04049); assay: Kinase activity assay, C-Raf
PI3Kα = PI3Kα (Homo sapiens, UniProt P42336); assay: Kinase activity assay, PI3Kα

Measured: IC50

Sequence of Fms (P07333 20-972): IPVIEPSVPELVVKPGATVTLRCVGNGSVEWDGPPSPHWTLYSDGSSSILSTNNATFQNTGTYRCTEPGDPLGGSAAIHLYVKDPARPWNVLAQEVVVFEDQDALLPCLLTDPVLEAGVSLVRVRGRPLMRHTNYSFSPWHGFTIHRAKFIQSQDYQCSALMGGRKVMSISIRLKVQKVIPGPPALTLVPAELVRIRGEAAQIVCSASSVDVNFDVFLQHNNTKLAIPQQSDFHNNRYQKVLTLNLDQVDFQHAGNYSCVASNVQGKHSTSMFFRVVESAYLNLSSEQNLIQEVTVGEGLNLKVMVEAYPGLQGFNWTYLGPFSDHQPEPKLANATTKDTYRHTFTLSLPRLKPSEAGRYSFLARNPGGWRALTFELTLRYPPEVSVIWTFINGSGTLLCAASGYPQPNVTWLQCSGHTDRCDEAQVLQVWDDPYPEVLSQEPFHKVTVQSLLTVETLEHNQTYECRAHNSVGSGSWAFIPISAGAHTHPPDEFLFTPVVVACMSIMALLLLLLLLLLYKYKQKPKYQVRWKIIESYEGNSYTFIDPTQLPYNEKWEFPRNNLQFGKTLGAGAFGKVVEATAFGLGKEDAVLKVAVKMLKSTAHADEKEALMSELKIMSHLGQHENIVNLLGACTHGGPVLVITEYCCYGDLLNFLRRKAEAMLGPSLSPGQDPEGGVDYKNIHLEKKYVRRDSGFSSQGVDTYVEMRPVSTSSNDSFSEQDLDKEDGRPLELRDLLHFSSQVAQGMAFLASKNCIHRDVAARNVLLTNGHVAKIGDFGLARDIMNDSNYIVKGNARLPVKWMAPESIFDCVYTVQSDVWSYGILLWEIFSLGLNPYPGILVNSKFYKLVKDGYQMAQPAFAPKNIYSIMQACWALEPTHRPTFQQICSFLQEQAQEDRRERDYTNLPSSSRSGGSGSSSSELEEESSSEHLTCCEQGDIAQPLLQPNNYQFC
Sequence of Kit (P10721 26-976): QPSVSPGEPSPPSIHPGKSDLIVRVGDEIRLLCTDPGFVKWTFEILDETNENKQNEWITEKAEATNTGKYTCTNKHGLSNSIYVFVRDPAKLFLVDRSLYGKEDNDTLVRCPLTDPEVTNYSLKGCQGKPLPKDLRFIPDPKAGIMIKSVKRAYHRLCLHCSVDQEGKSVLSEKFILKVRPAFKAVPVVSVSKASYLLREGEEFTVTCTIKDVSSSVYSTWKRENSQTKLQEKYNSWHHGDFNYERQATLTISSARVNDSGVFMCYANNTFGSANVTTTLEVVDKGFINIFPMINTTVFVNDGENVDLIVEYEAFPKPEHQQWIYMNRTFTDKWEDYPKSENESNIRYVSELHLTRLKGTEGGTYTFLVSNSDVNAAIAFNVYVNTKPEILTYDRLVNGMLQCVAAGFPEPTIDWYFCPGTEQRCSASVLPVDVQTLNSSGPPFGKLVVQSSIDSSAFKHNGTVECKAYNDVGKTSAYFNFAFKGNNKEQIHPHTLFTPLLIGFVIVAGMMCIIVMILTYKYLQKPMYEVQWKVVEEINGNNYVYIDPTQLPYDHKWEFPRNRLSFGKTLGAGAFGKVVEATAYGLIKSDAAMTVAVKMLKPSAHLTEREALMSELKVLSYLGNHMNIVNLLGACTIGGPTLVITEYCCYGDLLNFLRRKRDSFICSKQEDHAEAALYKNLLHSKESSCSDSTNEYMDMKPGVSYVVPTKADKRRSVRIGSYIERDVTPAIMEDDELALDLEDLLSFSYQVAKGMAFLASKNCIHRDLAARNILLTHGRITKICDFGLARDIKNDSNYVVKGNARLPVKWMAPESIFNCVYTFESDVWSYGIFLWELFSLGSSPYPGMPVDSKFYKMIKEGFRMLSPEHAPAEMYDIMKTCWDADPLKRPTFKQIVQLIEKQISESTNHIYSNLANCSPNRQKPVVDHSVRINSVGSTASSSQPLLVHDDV
Sequence of B-Raf V600E (P15056 whole entry V600E): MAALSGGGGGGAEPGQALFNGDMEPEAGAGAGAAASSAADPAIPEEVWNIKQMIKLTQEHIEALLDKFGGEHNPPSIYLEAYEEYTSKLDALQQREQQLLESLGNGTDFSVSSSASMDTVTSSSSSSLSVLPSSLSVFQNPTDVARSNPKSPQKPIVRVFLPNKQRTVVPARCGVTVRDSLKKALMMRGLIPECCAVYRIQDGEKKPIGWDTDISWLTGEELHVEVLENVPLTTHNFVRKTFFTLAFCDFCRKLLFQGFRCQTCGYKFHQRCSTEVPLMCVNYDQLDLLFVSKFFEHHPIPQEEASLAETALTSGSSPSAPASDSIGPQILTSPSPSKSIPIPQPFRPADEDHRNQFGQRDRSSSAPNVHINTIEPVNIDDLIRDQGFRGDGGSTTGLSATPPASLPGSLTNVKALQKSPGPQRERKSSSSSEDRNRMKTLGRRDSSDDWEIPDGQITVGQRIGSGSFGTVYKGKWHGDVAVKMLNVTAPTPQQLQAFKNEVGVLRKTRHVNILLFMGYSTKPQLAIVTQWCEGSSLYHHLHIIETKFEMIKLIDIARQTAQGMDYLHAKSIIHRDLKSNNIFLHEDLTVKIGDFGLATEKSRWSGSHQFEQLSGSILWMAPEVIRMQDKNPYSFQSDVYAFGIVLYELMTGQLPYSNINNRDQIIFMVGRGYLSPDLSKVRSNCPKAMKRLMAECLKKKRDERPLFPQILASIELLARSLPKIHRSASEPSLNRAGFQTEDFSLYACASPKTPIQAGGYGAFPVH
Sequence of C-Raf (P04049 whole entry): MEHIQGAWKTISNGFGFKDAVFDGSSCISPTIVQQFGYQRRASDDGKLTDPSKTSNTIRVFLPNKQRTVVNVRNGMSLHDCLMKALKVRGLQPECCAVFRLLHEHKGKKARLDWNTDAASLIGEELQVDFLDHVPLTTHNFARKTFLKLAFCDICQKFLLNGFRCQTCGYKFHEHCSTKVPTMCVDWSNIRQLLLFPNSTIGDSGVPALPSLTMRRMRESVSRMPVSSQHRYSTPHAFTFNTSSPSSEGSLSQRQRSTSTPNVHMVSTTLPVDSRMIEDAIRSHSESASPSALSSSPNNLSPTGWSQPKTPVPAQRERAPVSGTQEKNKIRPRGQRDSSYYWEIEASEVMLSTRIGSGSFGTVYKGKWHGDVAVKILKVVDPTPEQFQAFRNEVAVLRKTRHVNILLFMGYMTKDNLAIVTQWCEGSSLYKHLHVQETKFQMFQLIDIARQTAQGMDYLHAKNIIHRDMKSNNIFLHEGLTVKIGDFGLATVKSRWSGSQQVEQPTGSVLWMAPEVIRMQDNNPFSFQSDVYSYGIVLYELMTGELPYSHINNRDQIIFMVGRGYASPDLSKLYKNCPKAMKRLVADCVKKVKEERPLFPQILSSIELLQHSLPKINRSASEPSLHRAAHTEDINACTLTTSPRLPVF
Sequence of Kdr (P35968 20-1356): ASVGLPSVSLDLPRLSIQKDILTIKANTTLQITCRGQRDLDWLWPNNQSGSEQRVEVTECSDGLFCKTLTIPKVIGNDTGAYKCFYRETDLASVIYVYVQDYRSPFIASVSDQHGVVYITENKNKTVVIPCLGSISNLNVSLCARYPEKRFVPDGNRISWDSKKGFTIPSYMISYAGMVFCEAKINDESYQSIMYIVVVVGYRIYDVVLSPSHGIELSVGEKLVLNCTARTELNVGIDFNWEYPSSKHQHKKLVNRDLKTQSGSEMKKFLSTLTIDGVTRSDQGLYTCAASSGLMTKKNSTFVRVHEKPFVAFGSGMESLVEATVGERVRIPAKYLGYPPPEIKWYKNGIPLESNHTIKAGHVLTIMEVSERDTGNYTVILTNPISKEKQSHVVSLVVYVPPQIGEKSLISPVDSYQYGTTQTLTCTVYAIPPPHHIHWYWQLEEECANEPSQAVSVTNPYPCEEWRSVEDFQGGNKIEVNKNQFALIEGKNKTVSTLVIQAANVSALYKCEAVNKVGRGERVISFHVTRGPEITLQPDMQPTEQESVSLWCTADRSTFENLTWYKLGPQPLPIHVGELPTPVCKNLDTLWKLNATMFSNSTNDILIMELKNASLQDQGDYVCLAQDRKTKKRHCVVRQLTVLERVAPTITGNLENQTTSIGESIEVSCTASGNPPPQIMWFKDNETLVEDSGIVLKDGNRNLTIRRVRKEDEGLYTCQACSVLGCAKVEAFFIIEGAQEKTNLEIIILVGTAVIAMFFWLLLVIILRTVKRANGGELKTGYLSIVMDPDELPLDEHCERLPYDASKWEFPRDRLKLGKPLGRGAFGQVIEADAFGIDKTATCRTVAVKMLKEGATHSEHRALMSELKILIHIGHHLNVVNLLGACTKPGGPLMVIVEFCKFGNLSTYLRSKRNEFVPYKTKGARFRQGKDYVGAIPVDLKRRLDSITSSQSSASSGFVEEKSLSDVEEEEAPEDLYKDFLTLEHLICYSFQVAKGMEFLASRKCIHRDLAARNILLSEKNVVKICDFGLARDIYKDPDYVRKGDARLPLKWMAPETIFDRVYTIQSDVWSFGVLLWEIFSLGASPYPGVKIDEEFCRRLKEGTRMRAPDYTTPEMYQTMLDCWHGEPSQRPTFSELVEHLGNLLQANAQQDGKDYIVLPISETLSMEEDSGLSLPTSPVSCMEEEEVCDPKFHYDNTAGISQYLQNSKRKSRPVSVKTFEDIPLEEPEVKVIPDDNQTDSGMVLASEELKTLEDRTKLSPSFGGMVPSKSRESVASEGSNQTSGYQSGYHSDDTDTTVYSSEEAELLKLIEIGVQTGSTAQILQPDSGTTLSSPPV
Sequence of B-Raf (P15056 whole entry): as the sequence (P15056 whole entry V600E) above, with E600V counted along it

COc1ccnc2[nH]cc(C(=O)c3c(F)ccc(NS(=O)(=O)c4cc(F)ccc4F)c3F)c12 [P-2022, N-[2,4-Difluoro-3-(4-methoxy-1H-pyrrolo[2,3-b]pyridine-3-carbonyl)-phenyl]-2,5-difluoro-benzenesulfonamide]
not listed: PI3Kα
≤ 10 µM: all other assays above

COc1ncc(-c2cnc3[nH]cc(C(=O)c4c(F)ccc(NS(=O)(=O)c5ccc(F)cc5)c4F)c3c2)cn1 [P-2040, N-{2,4-Difluoro-3-[5-(2-methoxy-pyrimidin-5-yl)-1H-pyrrolo[2,3-b]pyridine-3-carbonyl]-phenyl}-4-fluoro-benzenesulfonamide]
≤ 10 µM: B-Raf | B-Raf V600E | TEC | PI3Kα | Src | C-Raf

Cn1cc(-c2cnc3[nH]cc(C(=O)c4cc(NS(=O)(=O)c5cccnc5)ccc4F)c3c2)cn1 [P-2140, Pyridine-3-sulfonic acid{4-fluoro-3-[5-(1-methyl-1H-pyrazol-4-yl)-1H-pyrrolo[2,3-b]pyridine-3-carbonyl]-phenyl}-amide]
not listed: A-Raf | PI3Kα
≤ 10 µM: all other assays above

Cn1cc(-c2cnc3[nH]cc(C(=O)c4cccc(NS(=O)(=O)c5cccnc5)c4)c3c2)cn1 [P-2144, Pyridine-3-sulfonic acid {3-[5-(1-methyl-1H-pyrazol-4-yl)-1H-pyrrolo[2,3-b]pyridine-3-carbonyl]-phenyl}-amide]
not listed: B-Raf V600E | A-Raf | C-Raf | PI3Kα
≤ 10 µM: all other assays above

CS(=O)(=O)c1cccc(-c2cnc3[nH]cc(C(=O)c4cccc(NS(=O)(=O)c5cccnc5)c4)c3c2)c1 [P-2149, Pyridine-3-sulfonic acid {3-[5-(3-methanesulfonyl-phenyl)-1H-pyrrolo[2,3-b]pyridine-3-carbonyl]-phenyl}-amide]
≤ 10 µM: B-Raf | PI3Kα | Kdr | Src | Fms | Kit | MAP4K4

CCCS(=O)(=O)Nc1ccc(F)c(C(=O)c2c[nH]c3ncc(-c4ccc(O)nc4)cc23)c1F [P-2234, Propane-1-sulfonic acid {2,4-difluoro-3-[5-(6-hydroxy-pyridin-3-yl)-1H-pyrrolo[2,3-b]pyridine-3-carbonyl]-phenyl}-amide]
not listed: TEC | Btk
≤ 10 µM: all other assays above

C#Cc1cnc2[nH]cc(C(=O)c3c(F)ccc(NS(=O)(=O)CCC)c3F)c2c1 [P-2260, Propane-1-sulfonic acid [3-(5-ethynyl-1H-pyrrolo[2,3-b]pyridine-3-carbonyl)-2,4-difluoro-phenyl]-amide]
not listed: MAP4K4 | PI3Kα
≤ 10 µM: all other assays above

COc1ncc(-c2cnc3[nH]cc(C(=O)c4c(F)ccc(NS(=O)(=O)CC(F)(F)F)c4F)c3c2)cn1 [P-2342, 2,2,2-Trifluoro-ethanesulfonic acid {2,4-difluoro-3-[5-(2-methoxy-pyrimidin-5-yl)-1H-pyrrolo[2,3-b]pyridine-3-carbonyl]-phenyl}-amide]
≤ 10 µM: B-Raf | B-Raf V600E | TEC | PI3Kα | Src | C-Raf

Cc1cnc2[nH]cc(C(=O)c3c(F)ccc(NS(=O)(=O)N4CCCC4)c3F)c2c1 [P-2379, Pyrrolidine-1-sulfonic acid [2,4-difluoro-3-(5-methyl-1H-pyrrolo[2,3-b]pyridine-3-carbonyl)-phenyl]-amide]
not listed: Fms | MAP4K4 | PI3Kα
≤ 10 µM: all other assays above

CN(C)S(=O)(=O)Nc1ccc(F)c(C(=O)c2c[nH]c3nccc(Cl)c23)c1F [P-2383, N,N-dimethylamino-sulfonic acid [3-(4-chloro-1H-pyrrolo[2,3-b]pyridine-3-carbonyl)-2,4-difluoro-phenyl]-amide]
not listed: A-Raf | PI3Kα
≤ 10 µM: all other assays above

N#Cc1ccnc2[nH]cc(C(=O)c3c(F)ccc(NS(=O)(=O)N4CCCC4)c3F)c12 [P-2394, Pyrrolidine-1-sulfonic acid [3-(4-cyano-1H-pyrrolo[2,3-b]pyridine-3-carbonyl)-2,4-difluoro-phenyl]-amide]
not listed: Fms | Kit | MAP4K4 | PI3Kα
≤ 10 µM: all other assays above

CS(=O)(=O)c1cccc(-c2cnc3[nH]cc(C(=O)c4cc(NS(=O)(=O)C5CCCCC5)ccc4F)c3c2)c1 [P-2444, Cyclohexanesulfonic acid {4-fluoro-3-[5-(3-methanesulfonyl-phenyl)-1H-pyrrolo[2,3-b]pyridine-3-carbonyl]-phenyl}-amide]
not listed: A-Raf | PI3Kα
≤ 10 µM: all other assays above

CS(=O)(=O)Nc1cccc(-c2cnc3[nH]cc(C(=O)c4cc(NS(=O)(=O)C5CCCCC5)ccc4F)c3c2)c1 [P-2446, Cyclohexanesulfonic acid {4-fluoro-3-[5-(3-methanesulfonylamino-phenyl)-1H-pyrrolo[2,3-b]pyridine-3-carbonyl]-phenyl}-amide]
not listed: B-Raf | A-Raf | PI3Kα
≤ 10 µM: all other assays above

CS(=O)(=O)Nc1cccc(-c2cnc3[nH]cc(C(=O)c4cc(NS(=O)(=O)C5CCCC5)ccc4F)c3c2)c1 [P-2447, Cyclopentanesulfonic acid {4-fluoro-3-[5-(3-methanesulfonylamino-phenyl)-1H-pyrrolo[2,3-b]pyridine-3-carbonyl]-phenyl}-amide]
not listed: A-Raf | PI3Kα
≤ 10 µM: all other assays above
